Results from PMC11172478, “1,3,5-Triazine as Branching Connector for the Construction of Novel Antimicrobial Peptide Dendrimers: Synthesis and Biological Characterization” (International Journal of Molecular Sciences, 2024).
In brackets after ≈: the same amount, converted by molar mass. Starred links: 1 amine or outer side, 2 acyl side, 3 side chain; linkers in the order of their positions; H or OH if unused. Positions of bridges follow the written chain, without caps; N, C: chain ends. Residues, ends and D or L forms follow the SMILES beside them. Chains are numbered I, II in the order given. X1 = O=C(c1ccc(Oc2nc(NCCN[*:2])nc(NCCN[*:3])n2)cc1)[*:1]

Assays:
[1] = Black lipid bilayers conductance; details: DiPhPC/PS 4:1 in n-decane, 1 M KCl, −80, −120 and −180 mV
Procedure: The basic methods have been described previously. Membranes were prepared from 1% lipid a mixture of di-phytanoyl-phosphatidylcholine/di-phytanoylphosphatidylserine (DiPhPC/PS) in a molar ratio of 4:1 in n-decane (Avanti Polar Lipids, Delfzyl, The Netherlands). Bilayers were painted over a 2 mm^2 hole in a Teflon divider separating two compartments containing 5 mL each of a bathing solution of 1MKCl. Voltages were applied across the membrane via calomel electrodes connected by a salt bridge. The resultant current was amplified 10^8-fold by a current amplifier and recorded on a Rikadenski chart recorder. A concentration of 1 μg/mL of the dendrimer was used based on the results of Wu et al..

P. aeruginosa ATCC 27853 [2] = assay: Bacterial growth curves; assay type: cell-based; details: P. aeruginosa ATCC 27853, TSB, MIC, ½ MIC and ¼ MIC, 24 h, 37 °C, OD 850 nm
Procedure: The real-time effect of the peptide dendrimers was examined on the growth curves of E. coli ATCC 25922 and P. aeruginosa ATCC 27853. Volumes of 10 mL of TSB liquid cultures containing 1–5 × 10^5 CFU/mL in the logarithmic phase were adjusted in Falcon tubes. Peptide dendrimers were then added at MIC and sub-inhibitory concentrations (½ MIC and ¼ MIC). Incubation was performed in RTS-1C real-time reverse spin bioreactors RTS-1 (Biosan) for 24 h at 37 °C and 2000 rpm. Growth was measured noninvasively as optical density (OD 850 nm) every 15 min.

E. coli ATCC 25922 [3] = assay: Atomic force microscopy of treated bacteria; assay type: cell-based; details: E. coli ATCC 25922, dendrimer at MIC, 4 h, 37 °C
Procedure: E. coli ATCC 25922 was grown at 37 °C in Mueller Hinton cation-adjusted broth to an optical density of 0.25 at 625 nm. Dendrimers were added to a starting inoculum of 10^6 CFU/mL and incubated for 4 h at 37 °C with shaking. Untreated E. coli was included as a control. Cells in 1 mL of culture were centrifuged at 5000 rpm for 5 min and washed three times with 1 mL of sterile water. The bacterial cells were then resuspended in 100 µL of sterile water and a 10 µL drop was applied to a freshly cleaved mica surface and allowed to dry for approximately 10 min at room temperature.
The disk surfaces were analyzed by atomic force microscopy using an AFM XE-70 (Park Systems, Suwon, Korea) in non-contact mode with an ACTA 10M cantilever. […] The AFM images were processed using a scanning probe image processor XEI (Park Systems), correcting the plane of the AFM image for any coupling of the lateral plane and the z-axis caused by the instrument.

S. aureus ATCC 29213 = assay type: cell-based; details: ATCC 29213, 24 h
Procedure: (§1) The antimicrobial activity of the dendrimers was evaluated against E. coli ATCC 25922, P. aeruginosa ATCC 27853 and S. aureus ATCC 29213 strains. The MIC values were determined by the broth microdilution method. Briefly, the different strains were grown in Muller Hinton broth cation adjusted (MHBCA) medium overnight at 37 °C with shaking at 200 rpm. The bacterial cultures were then adjusted to OD625nm of 0.08–0.1, and 5 μL of each diluted suspension was added to 96-well plates previously filled with MHBCA and serially diluted peptides. Plates were incubated for 24 h at 37 °C. Finally, the MIC was determined macroscopically, based on the visual turbidity of the wells.

E. coli ATCC 25922 [4] = assay type: cell-based; details: broth microdilution, MHBCA, 24 h, 37 °C, visual turbidity
Procedure: as §1

P. aeruginosa ATCC 27853 [5] = assay type: cell-based; details: broth microdilution, MHBCA, 24 h, 37 °C, visual turbidity
Procedure: as §1

[6] = tested on: Hep G2 hepatocellular carcinoma cell line; assay: Cytotoxicity, resazurin reduction; assay type: cell-based, human; details: HepG2 cells, 24 h, resazurin fluorescence
Procedure: The cytotoxicity assay was performed in the human hepatocellular carcinoma cell line Hep G2 ATCC and murine L-929 fibroblasts (NCTC clone 929, ECACC 88102702) obtained from the laboratory of Dr. Pérez-Tomás (Cancer Cell Biology, University of Barcelona). The cytotoxicity of the selected peptides was determined by measuring the intracellular reduction of resazurin sodium salt (Sigma-Aldrich, St. Louis, MO, USA). Briefly, HepG2 and L-929 cells were grown in RPMI 1640 or MEM medium, respectively (Biochrom AG, Berlin, Germany), supplemented with 10% fetal bovine serum. Cells from pre-confluent cultures were harvested with trypsin-EDTA and maintained at 37 °C in 5% CO2. Then, 100 µL of each cell line was seeded into 96-well flat-bottomed microplates and incubated for 24 h at 37 °C. The medium was then replaced with 200 μL of medium containing the dendrimers at concentrations ranging from 64 to 0.125 μg/mL and the microplates were incubated for 24 h at 37 °C. Next, 20 μL of resazurin was added to each well and the plates were incubated under the same conditions for 24 h. Fluorescence was measured using a multiwell scanning spectrophotometer at an excitation wavelength of 530 nm and an emission wavelength of 590 nm. Cytotoxicity was then calculated by comparing the fluorescence of the treated and untreated cells (Figure S22).

P. aeruginosa ATCC 27853 [7] = assay: Time-kill curves; assay type: cell-based; details: P. aeruginosa ATCC 27853, ½ MIC
Procedure: The death kinetics of the active dendrimers were examined by plotting their time-kill curves against E. coli ATCC 25922 and P. aeruginosa ATCC 27853. The dendrimers were added to a starting bacterial inoculum of 10^6 CFU/mL in 5 mL of MHBCA medium. Dendrimers were tested at three different concentrations: MIC, ½ MIC and ¼ MIC. They were incubated for 24 h at 37 °C with shaking at 200 rpm. Samples were aseptically collected at 0, 1, 2, 4 and 6 h, serially diluted in Ringer ¼ and plated on Tryptone soy agar for colony counting.
The response of the microbial strains to the dendrimers was determined based on a logarithmic decrease in viable bacteria. A compound was considered active if it caused a reduction of ≥1 log10 CFU/mL, compared to the corresponding counts at time 0 h. In addition, a dendrimer was considered bactericidal if it caused a reduction of ≥3 log10 CFU/mL [40].

MDR P. aeruginosa = assay type: cell-based; details: 24 h
Procedure: (§2) E. coli ATCC 25922, P. aeruginosa ATCC 27853, S. aureus ATCC 29213, P. aeruginosa 666 SJD (ciprofloxacin-resistant), P. aeruginosa P12, P13, P15, P16 and P17 (MDR isolates) and E. coli 7987, 5545, 8248, 13974, 7259 and 208691 (MDR isolates) from our own collection were included in the present study.
as §1

MDR E. coli = assay type: cell-based; details: 24 h
Procedure: as §2, §1

Row | Compound | channel formation in planar lipid bilayers (conductance) [1] | effect on growth curve (in words) (P. aeruginosa ATCC 27853 [2]) | bacterial surface alteration by AFM (in words) (E. coli ATCC 25922 [3]) | MIC S. aureus ATCC 29213 (S. aureus ATCC 29213) [µg/mL] | MIC E. coli ATCC 25922 (E. coli ATCC 25922 [4]) [µg/mL] | MIC P. aeruginosa ATCC 27853 (P. aeruginosa ATCC 27853 [5]) [µg/mL] | % Cytotoxicity at 64µg/mL, HepG2 [6] [%] | time-kill activity at ½ MIC (in words) (P. aeruginosa ATCC 27853 [7]) | MIC values in MDR P. aeruginosa (span over isolates) (MDR P. aeruginosa) [µg/mL] | MIC values in MDR E. coli (span over isolates) (MDR E. coli) [µg/mL]
1 | CC(C)C[C@H](NC(=O)c1ccc(Oc2nc(NCCNC(=O)[C@H](CCCCN)NC(=O)[C@H](CC(C)C)NC(=O)[C@H](CCCCN)NC(=O)[C@H](CC(C)C)NC(=O)[C@H](CCCCN)NC(=O)[C@@H](N)CC(C)C)nc(NCCNC(=O)[C@H](CCCCN)NC(=O)[C@H](CC(C)C)NC(=O)[C@H](CCCCN)NC(=O)[C@H](CC(C)C)NC(=O)[C@H](CCCCN)NC(=O)[C@@H](N)CC(C)C)n2)cc1)C(=O)N[C@@H](CCCCN)C(=O)N[C@@H](CC(C)C)C(=O)N[C@@H](CCCCN)C(=O)N[C@@H](CC(C)C)C(=O)N[C@@H](CCCCN)C(N)=O [Dendrimer 1, H-[(LK)3]2-(EDA)2-TA-PHBA-(LK)3-NH2] (I: LKLKLK-NH2 / II: H-LKLKLK / III: H-LKLKLK; linker I:N-II:C-III:C via X1) | did not induce membrane channels | noticeable growth delay | significant surface damages | >64 | 8 (≈ 3.19 µM) | 16 (≈ 6.39 µM) | 0 |  |  | 
2 | CC(C)C[C@H](NC(=O)[C@H](CCCCN)NC(=O)[C@H](CC(C)C)NC(=O)[C@H](CCCCN)NC(=O)[C@H](CC(C)C)Nc1nc(NCCNC(=O)[C@H](CCCCN)NC(=O)[C@H](CC(C)C)NC(=O)[C@H](CCCCN)NC(=O)[C@H](CC(C)C)NC(=O)[C@H](CCCCN)NC(=O)[C@@H](N)CC(C)C)nc(NCCNC(=O)[C@H](CCCCN)NC(=O)[C@H](CC(C)C)NC(=O)[C@H](CCCCN)NC(=O)[C@H](CC(C)C)NC(=O)[C@H](CCCCN)NC(=O)[C@@H](N)CC(C)C)n1)C(=O)N[C@@H](CCCCN)C(N)=O [Dendrimer 2, H-[(LK)3-EDA]2-TA-(LK)3-NH2] | did not induce membrane channels | complete growth inhibition occurred at the MIC | significant surface damages | >64 | 2 (≈ 0.839 µM) | 16 (≈ 6.71 µM) | 0 | higher antimicrobial activity than dendrimer 1 | 16 to 32 | 2 to 8
